Experimental data reported in ChEMBL document CHEMBL4052650, “Halogen-substituted catechol bisphosphates are potent and selective inhibitors of the transcription factor STAT5b” (Bioorg Med Chem, 2017).

Legend:
[1] = target: T1, Signal transducer and activator of transcription 5A (Homo sapiens, UniProt P42229); test: Displacement of 5-carboxyfluorescein-GY(PO3H2)LVLDKW from STAT5A SH2 domain (unknown origin) pretreated for 1 hr followed by fluorescent tracer addition after 1 hr by fluorescence polarization assay
T1 sequence (P42229 whole entry): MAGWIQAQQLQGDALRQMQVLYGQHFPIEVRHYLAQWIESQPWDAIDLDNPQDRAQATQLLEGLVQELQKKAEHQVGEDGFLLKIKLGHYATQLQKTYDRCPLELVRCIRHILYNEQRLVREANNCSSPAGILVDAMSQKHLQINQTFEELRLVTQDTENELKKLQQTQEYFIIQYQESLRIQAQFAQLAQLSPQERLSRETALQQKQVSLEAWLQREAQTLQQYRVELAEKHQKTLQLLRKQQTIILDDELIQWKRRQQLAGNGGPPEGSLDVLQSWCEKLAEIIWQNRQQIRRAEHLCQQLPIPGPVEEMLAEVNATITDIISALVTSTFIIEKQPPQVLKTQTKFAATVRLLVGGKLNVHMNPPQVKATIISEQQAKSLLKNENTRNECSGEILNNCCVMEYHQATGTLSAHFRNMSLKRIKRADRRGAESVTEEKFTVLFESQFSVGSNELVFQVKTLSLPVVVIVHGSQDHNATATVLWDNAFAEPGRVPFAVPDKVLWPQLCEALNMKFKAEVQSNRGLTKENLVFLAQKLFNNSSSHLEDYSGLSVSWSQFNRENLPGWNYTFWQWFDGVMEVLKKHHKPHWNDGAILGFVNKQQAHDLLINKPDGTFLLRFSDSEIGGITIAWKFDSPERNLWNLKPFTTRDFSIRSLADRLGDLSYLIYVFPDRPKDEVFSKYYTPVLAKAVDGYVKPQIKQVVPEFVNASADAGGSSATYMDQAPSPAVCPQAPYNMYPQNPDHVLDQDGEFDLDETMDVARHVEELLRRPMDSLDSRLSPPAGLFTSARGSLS

[2] = target: T2, Signal transducer and activator of transcription 5B (Homo sapiens, UniProt P51692); test: Displacement of 5-carboxyfluorescein-GY(PO3H2)LVLDKW from STAT5B SH2 domain (unknown origin) pretreated for 1 hr followed by fluorescent tracer addition after 1 hr by fluorescence polarization assay
T2 sequence (P51692 whole entry): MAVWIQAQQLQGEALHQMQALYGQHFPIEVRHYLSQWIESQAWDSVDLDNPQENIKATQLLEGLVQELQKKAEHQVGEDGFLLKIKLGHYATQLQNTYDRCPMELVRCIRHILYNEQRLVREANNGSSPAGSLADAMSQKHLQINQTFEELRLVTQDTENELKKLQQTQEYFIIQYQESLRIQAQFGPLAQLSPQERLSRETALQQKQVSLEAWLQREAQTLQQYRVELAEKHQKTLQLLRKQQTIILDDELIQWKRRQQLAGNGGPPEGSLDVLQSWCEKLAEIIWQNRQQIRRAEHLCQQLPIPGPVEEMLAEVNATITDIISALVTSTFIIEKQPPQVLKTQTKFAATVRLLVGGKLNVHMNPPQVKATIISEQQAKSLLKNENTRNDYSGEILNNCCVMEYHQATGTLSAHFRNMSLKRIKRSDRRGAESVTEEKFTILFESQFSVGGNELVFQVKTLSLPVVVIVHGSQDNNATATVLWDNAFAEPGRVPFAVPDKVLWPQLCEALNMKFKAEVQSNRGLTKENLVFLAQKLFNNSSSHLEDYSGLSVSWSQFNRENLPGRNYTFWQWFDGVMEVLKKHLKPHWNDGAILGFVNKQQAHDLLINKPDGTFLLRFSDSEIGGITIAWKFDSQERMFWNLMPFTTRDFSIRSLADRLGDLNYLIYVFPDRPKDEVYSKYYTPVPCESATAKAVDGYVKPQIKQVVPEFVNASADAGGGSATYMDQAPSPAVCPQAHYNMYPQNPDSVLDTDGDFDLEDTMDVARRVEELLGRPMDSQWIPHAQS

Homo sapiens = species: Homo sapiens; test: Selectivity factor, ratio of IC50 for displacement of 5-carboxyfluorescein-GY(PO3H2)LVLDKW from STAT5A SH2 domain (unknown origin) to IC50 for displacement of 5-carboxyfluorescein-GY(PO3H2)LVLDKW from STAT5B SH2 domain (unknown origin)

| IC50 [1] | IC50 [2] | Ratio IC50 (Homo sapiens) | SMILES |
| --- | --- | --- | --- |
| 10.5 µM | 0.66 µM | 16 | O=C(COc1ccc(C(=O)Nc2cccc(Br)c2)cc1)NCc1ccc(OP(=O)(O)O)c(OP(=O)(O)O)c1 |
| 11.9 µM | 0.62 µM | 19 | O=C(COc1ccc(C(=O)Nc2cccc(F)c2)cc1)NCc1ccc(OP(=O)(O)O)c(OP(=O)(O)O)c1 |
| 7.3 µM | 0.26 µM | 28 | O=C(COc1ccc2cc(C(=O)Nc3cccc(Cl)c3)ccc2c1)NCc1ccc(OP(=O)(O)O)c(OP(=O)(O)O)c1 |
| 9.1 µM | 0.46 µM | 20 | O=C(COc1ccc(C(=O)Nc2cccc(Cl)c2)cc1)NCc1ccc(OP(=O)(O)O)c(OP(=O)(O)O)c1 |
| 8.4 µM | 0.234 µM | 36 | O=C(COc1ccc2cc(C(=O)Nc3cccc(F)c3)ccc2c1)NCc1ccc(OP(=O)(O)O)c(OP(=O)(O)O)c1 |
| 7.4 µM | 0.33 µM | 22 | O=C(COc1ccc(C(=O)Nc2ccc(Cl)cc2)cc1)NCc1ccc(OP(=O)(O)O)c(OP(=O)(O)O)c1 |
| 7.6 µM | 0.24 µM | 32 | O=C(COc1ccc2cc(C(=O)Nc3ccc(Br)cc3)ccc2c1)NCc1ccc(OP(=O)(O)O)c(OP(=O)(O)O)c1 |
| 8.6 µM | 0.39 µM | 22 | O=C(COc1ccc(C(=O)Nc2ccc(Br)cc2)cc1)NCc1ccc(OP(=O)(O)O)c(OP(=O)(O)O)c1 |
| 7.2 µM | 0.22 µM | 33 | O=C(COc1ccc2cc(C(=O)Nc3ccc(F)cc3)ccc2c1)NCc1ccc(OP(=O)(O)O)c(OP(=O)(O)O)c1 |
| 8.9 µM | 0.27 µM | 33 | O=C(COc1ccc2cc(C(=O)Nc3ccc(Cl)cc3)ccc2c1)NCc1ccc(OP(=O)(O)O)c(OP(=O)(O)O)c1 |
| 8.3 µM | 0.35 µM | 24 | O=C(COc1ccc(C(=O)Nc2ccc(F)cc2)cc1)NCc1ccc(OP(=O)(O)O)c(OP(=O)(O)O)c1 |
| 10.6 µM | 0.29 µM | 37 | O=C(COc1ccc2cc(C(=O)Nc3cccc(Br)c3)ccc2c1)NCc1ccc(OP(=O)(O)O)c(OP(=O)(O)O)c1 |
| 9.7 µM | 0.28 µM | 35 | O=C(COc1ccc(C(=O)Nc2ccccc2)cc1)NCc1ccc(OP(=O)(O)O)c(OP(=O)(O)O)c1 |
